Experimental data reported in article PMC12542817, “LaIT6: A Novel Insect-Selective K^+-Channel Toxin from Liocheles australasiae Scorpion Venom” (Molecules, 2025).
pIC50: −log10 of the molar value. Read-outs that look alike come from different tables or passages of the source. Where a SMILES comes first, the peptide text is derived from it. Where no end group is shown, it is not given here.

Assays:
[1] = molecular target: T1, Shaker-IR K+ channel (Drosophila melanogaster, UniProt P08510, DEL6-46); test: Two-electrode voltage clamp on Shaker-IR K+ channel expressed in Xenopus oocytes; format: biochemical; conditions: for pIC50: TEVC in Xenopus laevis oocytes, ND96 pH 7.4, 18–22 °C, n ≥ 3 per concentration, read-out: IC50, inhibition of Shaker-IR K+ channel
T1 construct: expressed in transfected cells; host or cells: Xenopus laevis oocytes injected with in-vitro-transcribed cRNA
T1 sequence (P08510 with tags, fused parts or gaps DEL6-46): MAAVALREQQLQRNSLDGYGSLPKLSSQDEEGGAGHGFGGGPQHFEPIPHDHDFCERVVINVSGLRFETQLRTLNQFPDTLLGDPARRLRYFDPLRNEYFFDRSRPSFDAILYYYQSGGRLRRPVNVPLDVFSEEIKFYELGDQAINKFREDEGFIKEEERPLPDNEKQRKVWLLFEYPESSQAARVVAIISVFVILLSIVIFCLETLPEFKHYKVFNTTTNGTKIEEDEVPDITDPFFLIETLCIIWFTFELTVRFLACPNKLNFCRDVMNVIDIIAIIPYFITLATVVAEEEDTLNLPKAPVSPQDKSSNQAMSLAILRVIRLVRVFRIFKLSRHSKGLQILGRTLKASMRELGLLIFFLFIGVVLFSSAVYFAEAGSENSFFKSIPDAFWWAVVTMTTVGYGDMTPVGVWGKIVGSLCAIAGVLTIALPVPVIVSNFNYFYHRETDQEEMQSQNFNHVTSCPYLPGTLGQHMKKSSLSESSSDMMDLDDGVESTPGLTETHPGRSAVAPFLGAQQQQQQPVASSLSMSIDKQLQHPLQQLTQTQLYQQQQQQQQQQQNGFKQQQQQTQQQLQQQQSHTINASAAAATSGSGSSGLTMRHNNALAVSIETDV
Method: Electrophysiological experiments were carried out in Xenopus laevis oocytes. Linearized plasmids encoding Shaker-IR, hKv1.1, and hKv1.2 channels were transcribed using the T7 mMESSAGE mMACHINE transcription kit (Ambion, Austin, TX, USA). Mature female animals were purchased from Nasco (Fort Atkinson, WI, USA) and were housed in the Aquatic Facility (KU Leuven) in compliance with the regulations of the European Union (EU) concerning the welfare of laboratory animals as declared in Directive 2010/63/EU. The use of X. laevis oocytes was approved by the Animal Ethics Committee of the KU Leuven with license number P186/2019. Stage V–VI oocytes were collected from anesthetized female X. laevis frogs as previously described, with the frogs anesthetized by placement in 0.1% tricaine solution (amino benzoic acid ethyl ester; Merck, Rahway, NJ, USA). Oocyte microinjection was performed using a microinjector (World Precision Instruments, Sarasota, FL, USA), with a programmed cRNA injection volume of 4–10 nL, depending on the channel subtype. The oocytes were incubated in an MBS solution (88 mM NaCl, 1 mM KCl, 2.5 mM NaHCO3, 1 mM MgSO4, and 5 mM HEPES, pH 7.8) supplemented with 50 mg/L gentamicin sulfate and 90 mg/L theophylline. Electrophysiological measurements were performed at room temperature (18–22 °C) using the two-electrode voltage clamp (TEVC) technique. Data were obtained using a GeneClamp 500 amplifier (Axon Instruments, Burlingame, CA, USA), and Clampex9 software (Axon Instruments, Union City, CA, USA) was used for data acquisition and storage. Glass micropipettes were produced using glass capillaries (borosilicate WPI 1B120-6) and drawn in a WPI (World Precision Instruments, Sarasota, FL, USA) manual stretcher. The bath and perfusion solutions were ND96 (96 mM NaCl, 2 mM KCl, 1.8 mM CaCl2, 2 mM MgCl2, and 5 mM HEPES, pH 7.4). Whole-cell currents of oocytes were recorded 1 to 3 days after injection. Current and voltage electrodes were filled with 3 M KCl, and their resistance was adjusted from 0.5 to 1.5 MΩ. […]

[2] = tested on: mice (male Slc:ICR strain); test: Mammalian toxicity, intracerebroventricular injection into mice; format: in vivo, mouse; conditions: injection dose 50 nmol/kg, in PBS, male Slc:ICR mice 20 g, three animals, monitored for up to 24 h
Method: (§1) The insecticidal activity was evaluated as previously described. In this study, we used crickets (Acheta domesticus, 45–55 mg), houseflies (Musca domestica, 13–17 mg), silkworms (Bombyx mori, 225–275 mg), and cockroaches (Periplaneta americana, 75–225 mg). Each peptide in distilled water was injected into the abdominal region of insects. As a negative control, distilled water was used. Ten insects were used for each dose, except for doses of 3.1 and 6.3 nmol in LaIT6(R24A), for which 15 and 20 insects were used, respectively. The number of dead insects was counted 48 h after injection (24 h after injection in the case of houseflies). […] Toxicity to mammals was evaluated as previously described. The sample solution in a PBS buffer was injected intracerebroventricularly into mice (male Slc:ICR strain, 20 g) after anesthetizing with isoflurane. As a negative control, PBS buffer was used. Three animals were used for each measurement, and toxic symptoms were monitored for up to 24 h. The experimental protocol was approved by the Ethical Committee for the Welfare of Animals at Kyoto University.

[3] = tested on: crickets (Acheta domesticus); test: Insecticidal activity against crickets (injection, LD50); format: in vivo; conditions: injection into abdominal region in distilled water; Acheta domesticus 45–55 mg; ten insects per dose; dead insects counted 48 h after injection; brackets = 95% confidence interval
Method: as §1

CC[C@H](C)[C@@H]1NC(=O)[C@@H]2CSSC[C@H](NC(=O)[C@@H]3CCCN3C(=O)[C@@H](NC(=O)[C@H](CC(N)=O)NC(=O)[C@@H]3CCCN3C(=O)[C@@H]3CCCN3C(=O)[C@@H](NC(=O)[C@@H](N)CO)C(C)C)[C@@H](C)CC)C(=O)N[C@@H](CCC(N)=O)C(=O)N[C@@H](C(C)C)C(=O)N[C@@H]([C@@H](C)O)C(=O)N[C@@H](CC(N)=O)C(=O)N[C@@H](CCC(N)=O)C(=O)N[C@H]3CSSC[C@H](NC(=O)[C@H](CCCNC(=N)N)NC(=O)CNC(=O)[C@H](CC(N)=O)NC1=O)C(=O)N[C@@H](CCCCN)C(=O)N[C@H](C(=O)N[C@@H](Cc1ccc(O)cc1)C(N)=O)CSSC[C@H](NC(=O)[C@@H]1CCCN1C(=O)[C@H](CCCCN)NC(=O)[C@@H]1CCCN1C3=O)C(=O)N[C@@H](CCCNC(=N)N)C(=O)N[C@@H](CCC(=O)O)C(=O)N[C@@H](C)C(=O)N[C@@H]([C@@H](C)O)C(=O)NCC(=O)N[C@@H](CCCNC(=N)N)C(=O)N1CCC[C@H]1C(=O)N[C@@H](CC(N)=O)C(=O)N[C@@H](CO)C(=O)N[C@@H](C)C(=O)N2 [LaIT6(K28A)] (HELM PEPTIDE1{S.V.P.P.N.I.P.C.Q.V.T.N.Q.C.P.K.P.C.R.E.A.T.G.R.P.N.S.A.C.I.N.G.R.C.K.C.Y.[am]}$PEPTIDE1,PEPTIDE1,8:R3-29:R3|PEPTIDE1,PEPTIDE1,14:R3-34:R3|PEPTIDE1,PEPTIDE1,18:R3-36:R3$$$V2.0)
pIC50 ([1]; 95% CI 0.81–6.7 µM): 5.64
IC50 on Shaker-IR relative to wild-type LaIT6 (times higher) ([1]; ratio of IC50 LaIT6(K28A) to IC50 LaIT6): approximately 300 times

CC[C@H](C)[C@@H]1NC(=O)[C@@H]2CSSC[C@H](NC(=O)[C@@H]3CCCN3C(=O)[C@@H](NC(=O)[C@H](CC(N)=O)NC(=O)[C@@H]3CCCN3C(=O)[C@@H]3CCCN3C(=O)[C@@H](NC(=O)[C@@H](N)CO)C(C)C)[C@@H](C)CC)C(=O)N[C@@H](CCC(N)=O)C(=O)N[C@@H](C(C)C)C(=O)N[C@@H]([C@@H](C)O)C(=O)N[C@@H](CC(N)=O)C(=O)N[C@@H](CCC(N)=O)C(=O)N[C@H]3CSSC[C@H](NC(=O)[C@H](CCCNC(=N)N)NC(=O)CNC(=O)[C@H](CC(N)=O)NC1=O)C(=O)N[C@@H](CCCCN)C(=O)N[C@H](C(=O)N[C@@H](Cc1ccc(O)cc1)C(N)=O)CSSC[C@H](NC(=O)[C@@H]1CCCN1C(=O)[C@H](CCCCN)NC(=O)[C@@H]1CCCN1C3=O)C(=O)N[C@@H](CCCNC(=N)N)C(=O)N[C@@H](CCC(=O)O)C(=O)N[C@@H](C)C(=O)N[C@@H]([C@@H](C)O)C(=O)NCC(=O)N[C@@H](CCCNC(=N)N)C(=O)N1CCC[C@H]1C(=O)N[C@@H](CC(N)=O)C(=O)N[C@@H](CO)C(=O)N[C@@H](CCCCN)C(=O)N2 [LaIT6] (HELM PEPTIDE1{S.V.P.P.N.I.P.C.Q.V.T.N.Q.C.P.K.P.C.R.E.A.T.G.R.P.N.S.K.C.I.N.G.R.C.K.C.Y.[am]}$PEPTIDE1,PEPTIDE1,8:R3-29:R3|PEPTIDE1,PEPTIDE1,14:R3-34:R3|PEPTIDE1,PEPTIDE1,18:R3-36:R3$$$V2.0)
Mammalian toxicity (toxic symptoms) in mice [2]: did not observe any toxic symptoms
pIC50 ([1]; 95% CI 4.8–14 nM): 8.09

SVPPNIPCQVTNQCPKPCREATGRPNSKCINGRCKCY-OH (disulfide (positions not given here)) [LaIT6(COOH), LaIT6 analog, C-terminal amide group converted to a carboxyl group]
LD50, insecticidal activity against crickets [3]: 19 (14–25) nmol/g
